ChEMBL document CHEMBL1155703, “Sequences and antimycoplasmic properties of longibrachins LGB II and LGB III, two novel 20-residue peptaibols from Trichoderma longibrachiatum” (J Nat Prod, 2001)
In brackets after ≈: the same amount, converted by molar mass. Square brackets hold non-standard residues; d marks the D form. Peptide text beside a SMILES is read from it. * marks the point of attachment. X2 = OC[C@H](Cc1c[nH]c2ccccc12)N*; Phe(ol) = N[C@H](CO)Cc1ccccc1; X1 = COC[C@H](Cc1ccccc1)N*; Aib = CC(C)(N)C(=O)O

Key:
[1] = Bilayer membrane permeabilization assessed as lipid to peptide ratio allowing 50% leakage of entrapped carboxyfluorescein from egg phosphatidylcholine-cholesterol liposomes at 1.36 uM at 20 mins by spectrofluorimetry; format: physicochemical
[2] = Bilayer membrane permeabilization assessed as lipid to peptide ratio allowing 50% leakage of entrapped carboxyfluorescein from egg phosphatidylcholine-cholesterol liposomes at 0.18 uM at 20 mins by spectrofluorimetry; format: physicochemical
[3] = Bilayer membrane permeabilization assessed as lipid to peptide ratio allowing 50% leakage of entrapped carboxyfluorescein from egg phosphatidylcholine-cholesterol liposomes at 0.45 uM at 20 mins by spectrofluorimetry; format: physicochemical
Acholeplasma laidlawii = test: Antimicrobial activity against Acholeplasma laidlawii PG-8A after 2 hrs; format: functional; conditions: for MIC: Acholeplasma laidlawii, PG-8A, 2 h
[4] = system: Mycoplasmoides gallisepticum; test: Antimicrobial activity against Mycoplasma gallisepticum S6 after 2 hrs; format: functional; conditions: for MIC: Mycoplasmoides gallisepticum, S6, 2 h
[5] = system: Mycoplasma mycoides subsp. mycoides SC; test: Antimicrobial activity against Mycoplasma mycoides subsp. mycoides SC KH3J after 2 hrs; format: functional
Spiroplasma apis = test: Antimicrobial activity against Spiroplasma apis B31 after 2 hrs; format: functional; conditions: for MIC: Spiroplasma apis, B31, 2 h
Spiroplasma citri = test: Antimicrobial activity against Spiroplasma citri R8A2 after 2 hrs; format: functional; conditions: R8A2, 2 h
Spiroplasma floricola = test: Antimicrobial activity against Spiroplasma floricola BNR1 after 2 hrs; format: functional; conditions: for MIC: Spiroplasma floricola, BNR1, 2 h
[6] = Bilayer membrane permeabilization assessed as lipid to peptide ratio allowing 50% leakage of entrapped carboxyfluorescein from egg phosphatidylcholine-cholesterol liposomes at 0.36 uM at 20 mins by spectrofluorimetry; format: physicochemical
[7] = Bilayer membrane permeabilization assessed as lipid to peptide ratio allowing 50% leakage of entrapped carboxyfluorescein from egg phosphatidylcholine-cholesterol liposomes at 0.98 uM at 20 mins by spectrofluorimetry; format: physicochemical

## CC[C@H](C)[C@H](NC(=O)C(C)(C)NC(=O)[C@@H](NC(=O)[C@@H]1CCCN1C(=O)C(C)(C)NC(=O)[C@H](CC(C)C)NC(=O)[C@H](CO)NC(=O)C(C)(C)NC(=O)C(C)(C)NC(=O)C(C)(C)NC(=O)[C@H](CCC(N)=O)NC(=O)C(C)(C)NC(=O)C(C)(C)NC(=O)[C@H](C)NC(=O)[C@H](C)NC(=O)C(C)(C)NC(C)=O)C(C)C)C(=O)N[C@@H](CCC(N)=O)C(=O)N[C@@H](CCC(=O)O)C(=O)N[C@H](CO)Cc1c[nH]c2ccccc12 (Ac-[Aib]AA[Aib][Aib]Q[Aib][Aib][Aib]SL[Aib]PV[Aib]IQE-X2)
[1]
  Ratio: 295

## CC[C@H](C)[C@H](NC(=O)C(C)(C)NC(=O)[C@@H](NC(=O)[C@@H]1CCCN1C(=O)C(C)(C)NC(=O)[C@H](CC(C)C)NC(=O)[C@H](CO)NC(=O)C(C)(C)NC(=O)C(C)(C)NC(=O)C(C)(C)NC(=O)[C@H](CCC(N)=O)NC(=O)C(C)(C)NC(=O)C(C)(C)NC(=O)[C@H](C)NC(=O)[C@H](C)NC(=O)C(C)(C)NC(C)=O)C(C)C)C(=O)N[C@@H](CCC(N)=O)C(=O)N[C@@H](CCC(N)=O)C(=O)N[C@H](CO)Cc1c[nH]c2ccccc12 (Ac-[Aib]AA[Aib][Aib]Q[Aib][Aib][Aib]SL[Aib]PV[Aib]IQQ-X2)
[2]
  Ratio: 2220

## COC[C@H](Cc1ccccc1)NC(=O)[C@H](CCC(N)=O)NC(=O)[C@H](CCC(=O)O)NC(=O)C(C)(C)NC(=O)C(C)(C)NC(=O)[C@@H](NC(=O)[C@@H]1CCCN1C(=O)C(C)(C)NC(=O)[C@H](CC(C)C)NC(=O)CNC(=O)C(C)(C)NC(=O)[C@@H](NC(=O)C(C)(C)NC(=O)[C@H](CCC(N)=O)NC(=O)[C@H](C)NC(=O)C(C)(C)NC(=O)[C@H](C)NC(=O)C(C)(C)NC(=O)[C@H](C)NC(=O)C(C)(C)NC(C)=O)C(C)C)C(C)C (Ac-[Aib]A[Aib]A[Aib]AQ[Aib]V[Aib]GL[Aib]PV[Aib][Aib]EQ-X1)
[3]
  Ratio: 1335

## CC(=O)NC(C)(C)C(=O)N[C@@H](C)C(=O)NC(C)(C)C(=O)N[C@@H](C)C(=O)NC(C)(C)C(=O)N[C@@H](C)C(=O)N[C@@H](CCC(N)=O)C(=O)NC(C)(C)C(=O)N[C@H](C(=O)NC(C)(C)C(=O)NCC(=O)N[C@@H](CC(C)C)C(=O)NC(C)(C)C(=O)N1CCC[C@H]1C(=O)N[C@H](C(=O)NC(C)(C)C(=O)NC(C)(C)C(=O)N[C@@H](CCC(=O)O)C(=O)N[C@@H](CCC(N)=O)C(=O)N[C@H](CO)Cc1ccccc1)C(C)C)C(C)C (Ac-[Aib]A[Aib]A[Aib]AQ[Aib]V[Aib]GL[Aib]PV[Aib][Aib]EQ[Phe(ol)])
Acholeplasma laidlawii
  MLC: 3.12 µM (≈ 6.05 µg/mL)
  MIC: 1.56 µM (≈ 3.02 µg/mL)
[4]
  MLC: 3.12 µM (≈ 6.05 µg/mL)
  MIC: 6.25 µM (≈ 12.1 µg/mL)
[5]
  MIC: 12.5 µM (≈ 24.2 µg/mL)
Spiroplasma apis
  MLC: 3.12 µM (≈ 6.05 µg/mL)
  MIC: 12.5 µM (≈ 24.2 µg/mL)
Spiroplasma citri
  MIC: 6.25 µM (≈ 12.1 µg/mL)
Spiroplasma floricola
  MLC: 3.12 µM (≈ 6.05 µg/mL)
  MIC: 12.5 µM (≈ 24.2 µg/mL)

## CC(=O)NC(C)(C)C(=O)N[C@@H](C)C(=O)NC(C)(C)C(=O)N[C@@H](C)C(=O)NC(C)(C)C(=O)N[C@@H](C)C(=O)N[C@@H](CCC(N)=O)C(=O)NC(C)(C)C(=O)N[C@H](C(=O)NC(C)(C)C(=O)NCC(=O)N[C@@H](CC(C)C)C(=O)NC(C)(C)C(=O)N1CCC[C@H]1C(=O)N[C@H](C(=O)NC(C)(C)C(=O)NC(C)(C)C(=O)N[C@@H](CCC(N)=O)C(=O)N[C@@H](CCC(N)=O)C(=O)N[C@H](CO)Cc1ccccc1)C(C)C)C(C)C (Ac-[Aib]A[Aib]A[Aib]AQ[Aib]V[Aib]GL[Aib]PV[Aib][Aib]QQ[Phe(ol)])
[6]
  Ratio: 1667

## CC(=O)NC(C)(C)C(=O)N[C@@H](C)C(=O)NC(C)(C)C(=O)N[C@@H](C)C(=O)NC(C)(C)C(=O)NC(C)(C)C(=O)N[C@@H](CCC(N)=O)C(=O)NC(C)(C)C(=O)N[C@H](C(=O)NC(C)(C)C(=O)NCC(=O)N[C@@H](CC(C)C)C(=O)NC(C)(C)C(=O)N1CCC[C@H]1C(=O)N[C@H](C(=O)NC(C)(C)C(=O)NC(C)(C)C(=O)N[C@@H](CCC(N)=O)C(=O)N[C@@H](CCC(N)=O)C(=O)N[C@H](CO)Cc1ccccc1)C(C)C)C(C)C (Ac-[Aib]A[Aib]A[Aib][Aib]Q[Aib]V[Aib]GL[Aib]PV[Aib][Aib]QQ[Phe(ol)])
[7]
  Ratio: 1820

## CC(=O)NC(C)(C)C(=O)N1CCC[C@H]1C(=O)NC(C)(C)C(=O)N[C@@H](C)C(=O)NC(C)(C)C(=O)N[C@@H](C)C(=O)N[C@@H](CCC(N)=O)C(=O)NC(C)(C)C(=O)N[C@H](C(=O)NC(C)(C)C(=O)NCC(=O)N[C@@H](CC(C)C)C(=O)NC(C)(C)C(=O)N1CCC[C@H]1C(=O)N[C@H](C(=O)NC(C)(C)C(=O)NC(C)(C)C(=O)N[C@@H](CCC(N)=O)C(=O)N[C@@H](CCC(N)=O)C(=O)N[C@H](CO)Cc1ccccc1)C(C)C)C(C)C [ALAMETHICIN F50] (Ac-[Aib]P[Aib]A[Aib]AQ[Aib]V[Aib]GL[Aib]PV[Aib][Aib]QQ[Phe(ol)])
Acholeplasma laidlawii
  MIC: 1.56 µM (≈ 3.06 µg/mL)
[4]
  MIC: 6.25 µM (≈ 12.3 µg/mL)
[5]
  MIC: 12.5 µM (≈ 24.5 µg/mL)
Spiroplasma apis
  MIC: 6.25 µM (≈ 12.3 µg/mL)
Spiroplasma citri
  MIC: 3.12 µM (≈ 6.13 µg/mL)
Spiroplasma floricola
  MIC: 6.25 µM (≈ 12.3 µg/mL)
